Columns and labels:
PfEXP1 = molecular target: T1, PfEXP1 (Plasmodium falciparum, UniProt Q8IIF0); test: glutathione S-transferase assay, absorbance at […] nm; assay type: biochemical
T1 sequence (Q8IIF0 23-162): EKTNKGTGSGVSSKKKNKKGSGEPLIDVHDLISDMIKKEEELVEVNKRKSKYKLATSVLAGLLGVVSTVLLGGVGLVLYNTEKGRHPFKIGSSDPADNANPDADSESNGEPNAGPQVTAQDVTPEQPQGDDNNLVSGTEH

[1] = molecular target: T2, PfEXP1 (expressed in Pichia pastoris) (Plasmodium falciparum, UniProt Q8IIF0); test: as above; assay type: biochemical
T2 sequence (Q8IIF0 23-162): T1 sequence (Q8IIF0 23-162)

## CCN(CC)CCCC(C)Nc1ccnc2cc(Cl)ccc12 (stereo not drawn) [chloroquine]
PfEXP1
  IC50: 0.0193 ± 0.00267 µM
[1]
  IC50: 0.0111 ± 0.00412 µM

## C=C[C@H]1C[N@@]2CC[C@H]1C[C@H]2[C@H](O)c1ccnc2ccc(OC)cc12 [quinine]
[1]
  IC50: 0.179 ± 0.0521 µM
